{
  "source": "paper PMC8236048",
  "about": "“Pharmaceutical design of a delivery system for the bacteriocin lacticin 3147” (Drug Delivery and Translational Research, 2021)",
  "key": {"pepsin": {"biological_target": "T1, pepsin (Sus scrofa, UniProt P00791)", "T1 construct": "purchased Sigma-Aldrich Ireland Ltd", "T1 sequence (P00791 60-385)": "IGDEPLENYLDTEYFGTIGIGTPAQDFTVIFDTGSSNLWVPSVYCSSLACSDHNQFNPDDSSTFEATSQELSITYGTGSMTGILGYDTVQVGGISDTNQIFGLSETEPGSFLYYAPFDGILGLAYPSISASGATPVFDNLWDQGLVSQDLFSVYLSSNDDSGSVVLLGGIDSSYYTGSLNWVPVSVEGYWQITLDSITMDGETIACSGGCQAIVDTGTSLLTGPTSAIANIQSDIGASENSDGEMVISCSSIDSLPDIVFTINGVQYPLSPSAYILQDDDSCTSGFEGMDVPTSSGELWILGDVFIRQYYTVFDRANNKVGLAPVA", "assay": "Enzyme degradation of lacticin 3147 by pepsin (activity, MALDI-TOF, RP-HPLC)", "assay_type": "in vitro ADME", "settings": "3 h; for intact peptide after incubation with pepsin (MALDI-TOF): 25 mg/ml pepsin, 13.38 µg/ml Ltnα, 11.86 µg/ml Ltnβ, pH 2.29, n = 3; for concentration with versus without pepsin (RP-HPLC): 60 mg/ml pepsin, 62.5 µg/ml peptide, 37 °C, RP-HPLC UV 214 nm", "procedure": "(§1) Lacticin 3147 production was confirmed by matrix-assisted laser desorption ionization-time of flight (MALDI-TOF) mass spectrometry using sinapinic acid as the matrix. About 0.7 μl of the matrix solution (sinapinic acid, 4 mg/ml in 50% acetone/50% methanol) was added to the target plate and left to evaporate (30 s) at ambient conditions. Individual peptides (Ltnα or Ltnβ) were resuspended in 70% IPA and mixed at a 1:1 volume ratio with a 10-mg/ml stock solution of sinapinic acid in 60% ACN with 0.1% TFA. About 0.3 μl of this peptide-matrix solution was then added to the matrix layer previously applied to the plate and evaporated at ambient conditions. The plate was inserted into a MALDI-TOF Ultraflex mass spectrometer (Bruker) and analysed using reflectron positive 700–3500 Da mode. 100 shots were fired at 88% intensity. This method was also used for the analyses of samples from the enzyme degradation studies.\nAll lacticin 3147 samples were filtered through a 0.2-µm PES filter before analysis by RP-HPLC using an Agilent 1200 Infinity Series HPLC (Agilent Technologies, USA). The HPLC separations were carried out on an Aeris 3.6 µm Peptide 100 Å 250 × 4.6 mm, liquid chromatography column with a flow rate of 0.8 ml/min, and with 0.1% trifluoroacetic acid (TFA) in water as aqueous phase-A and 0.1% TFA in acetonitrile (ACN) as organic phase-B. The total run time was 51 min. The mobile phase started with 30:70 A:B for 3 min and change linearly to 35:65 A:B over 30 min. The organic phase was then adjusted to 100% within 1 min and continued to flow for 5 min. After this, the mobile phase returned to the initial ratio to stabilize the chromatographic system. The detector was set at 214 nm. The peak area (mAU) was plotted against the concentration (1.56–500 µg/ml) to make a calibration curve. The coefficients of determination (R^2 values) were 0.9963 and 0.9983 for Ltnα and Ltnβ respectively. This method was subsequently used for quantitative analysis of Ltnα and Ltnβ.\n(§2) Trypsin and α-chymotrypsin stock solutions (50 mg/ml) were resuspended in water. Pepsin (50 mg/ml) was resuspended in 0.02 M HCL. About 1 mg/ml individual solutions of Ltnα and Ltnβ in 70% IPA were filtered and diluted (1 in 20) in sterile PBS to give a final peptide concentration of 50 µg/ml. After this, 5.3 µl Ltnα and 4.6 µl Ltnβ were added to the same well of a 96-well plate. The pH of the lacticin 3147-pepsin solution was 2.29. Control wells consisting of Ltnα and Ltnβ together, Ltnα alone, and Ltnβ alone with no enzyme were included. The 96-well plate was incubated for 3 h at 37 °C to allow the enzyme to act. After incubation, the wells were filled to 50 μl with PBS and 150 μl of diluted bacterial cell culture (L. monocytogenes at an OD of 0.1) was added to each well. The final peptide concentration of 400 nM (1.31 µg/ml Ltnα, 1.14 µg/ml Ltnβ) was obtained when the wells were filled to 200 µl. Blanks were set up in triplicate with media only and PBS only. The three control wells were also set up with bacterial culture and each enzyme only. […] The effect of the proteases pepsin, α-chymotrypsin, and trypsin on the lacticin 3147 peptides was determined by MALDI-TOF mass spectrometry. […] After 3 h, 1 µl was removed from each sample and it was analysed by MALDI-TOF mass spectrometry. […]\nPepsin’s effect on lacticin 3147 was also investigated by RP-HPLC. […] After incubation, aliquots were taken, filtered, and analysed by RP-HPLC to determine if pepsin degrades Ltnα or Ltnβ to any extent."}, "trypsin": {"tested_on": "trypsin", "assay": "Enzyme degradation of lacticin 3147 by trypsin (activity, MALDI-TOF)", "assay_type": "in vitro ADME", "settings": "3 h incubation, n = 3", "procedure": "as §1\nTrypsin and α-chymotrypsin stock solutions (50 mg/ml) were resuspended in water. Pepsin (50 mg/ml) was resuspended in 0.02 M HCL. […] The effect of the proteases pepsin, α-chymotrypsin, and trypsin on the lacticin 3147 peptides was determined by MALDI-TOF mass spectrometry. […] After 3 h, 1 µl was removed from each sample and it was analysed by MALDI-TOF mass spectrometry. […]"}, "α-chymotrypsin": {"biological_target": "T2, α-chymotrypsin (Bos taurus, UniProt P00766)", "T2 construct": "purchased Sigma-Aldrich Ireland Ltd", "assay": "Enzyme degradation of lacticin 3147 by α-chymotrypsin (activity, MALDI-TOF)", "assay_type": "in vitro ADME", "settings": "3 h incubation, n = 3", "procedure": "as §1\nas §2, with “µl.” for “µl. Blanks were set up in triplicate with media only and PBS only. The three control wells were also set up with bacterial culture and each enzyme only.”"}, "C. difficile": {"tested_on": "C. difficile", "settings": "treatment failures of C. difficile infection after use of antibiotics; cited from earlier work", "from_the_text": "Approximately 223,900 C. difficile infections and 12,800 resulting deaths were reported in the USA in 2017 [17]. Treatment failures and recurrences of infection after the use of antibiotics are increasingly common, with a 2–38% failure rate for vancomycin and 8–50% for metronidazole. A more virulent strain of C. d ..."}},
  "data": [
    {"smiles": "CC=C(NC(=O)C1CSCC(N)C(=O)N1)C(=O)N[C@@H](CC(N)=O)C(=O)NC(=CC)C(=O)N[C@@H](Cc1ccccc1)C(=O)N[C@H](C)C(=O)N[C@@H](CC(C)C)C(=O)NC1CSCC(C(=O)NC2C(=O)N[C@@H](CC(C)C)C(=O)NC3C(=O)N[C@@H](Cc4c[nH]cn4)C(=O)N[C@@H](CCC(=O)O)C(=O)NC(CSC2C)C(=O)N[C@@H](CCSC)C(=O)N[C@@H](C)C(=O)N[C@@H](Cc2c[nH]c4ccccc24)C(=O)NC(C(=O)N[C@@H](CCCCN)C(=O)O)CSC3C)NC(=O)[C@H](Cc2c[nH]c3ccccc23)NC(=O)[C@H](C)NC(=O)CNC(=O)[C@H](CC(N)=O)NC(=O)[C@H](CC(N)=O)NC(=O)CNC(=O)[C@H](Cc2c[nH]c3ccccc23)NC(=O)[C@H](Cc2ccc(O)cc2)NC(=O)[C@H](CC(=O)O)NC1=O", "note": "(stereo partly shown) [Ltnα]", "values": [
      {"measurement": "intact peptide after incubation with pepsin (MALDI-TOF)", "setting": "pepsin", "result": "Masses corresponding to Ltnα and Ltnβ can be seen"},
      {"measurement": "concentration with versus without pepsin (RP-HPLC)", "setting": "pepsin", "result": "not significantly different"},
      {"measurement": "intact peptide after incubation with trypsin (MALDI-TOF)", "setting": "trypsin", "result": "no masses corresponding to intact"},
      {"measurement": "intact peptide after incubation with α-chymotrypsin (MALDI-TOF)", "setting": "α-chymotrypsin", "result": "no masses corresponding to intact"}
    ]},
    {"smiles": "CC=C(NC(=O)C(=O)CC)C(=O)N1CCC[C@H]1C(=O)N[C@@H](C)C(=O)NC(=CC)C(=O)N1CCC[C@H]1C(=O)N[C@@H](C)C(=O)N[C@H](C(=O)N[C@H](C)C(=O)N[C@H](C(=O)N[C@@H](CC(C)C)C(=O)N[C@H](C)C(=O)N[C@@H](C)C(=O)N[C@@H](Cc1ccc(O)cc1)C(=O)N[C@H](C(=O)NC1CSCC(C(=O)N2CCC[C@H]2C(=O)NC2C(=O)N[C@@H]([C@@H](C)O)C(=O)N[C@@H](CCCCN)C(=O)NC(C(=O)NC3C(=O)N[C@@H](CCCNC(=N)N)C(=O)N[C@@H](C)C(=O)NC(C(=O)O)CSC3C)CSC2C)NC(=O)[C@H]([C@@H](C)O)NC(=O)[C@H](CC(N)=O)NC(=O)[C@H]([C@@H](C)O)NC1=O)[C@@H](C)CC)[C@@H](C)CC)[C@@H](C)CC", "note": "(stereo partly shown) [Ltnβ]", "values": [
      {"measurement": "intact peptide after incubation with pepsin (MALDI-TOF)", "setting": "pepsin", "result": "Masses corresponding to Ltnα and Ltnβ can be seen"},
      {"measurement": "concentration with versus without pepsin (RP-HPLC)", "setting": "pepsin", "result": "not significantly different"},
      {"measurement": "intact peptide after incubation with trypsin (MALDI-TOF)", "setting": "trypsin", "result": "no masses corresponding to intact"},
      {"measurement": "intact peptide after incubation with α-chymotrypsin (MALDI-TOF)", "setting": "α-chymotrypsin", "result": "no masses corresponding to intact"}
    ]},
    {"smiles": "Cc1ncc([N+](=O)[O-])n1CCO", "note": "[metronidazole]", "values": [
      {"measurement": "failure rate", "setting": "C. difficile", "result": "8–50%"}
    ]},
    {"smiles": "CN[C@H](CC(C)C)C(=O)N[C@H]1C(=O)N[C@@H](CC(N)=O)C(=O)N[C@H]2C(=O)N[C@H]3C(=O)N[C@H](C(=O)N[C@H](C(=O)O)c4cc(O)cc(O)c4-c4cc3ccc4O)[C@H](O)c3ccc(c(Cl)c3)Oc3cc2cc(c3O[C@@H]2O[C@H](CO)[C@@H](O)[C@H](O)[C@H]2O[C@H]2C[C@](C)(N)[C@H](O)[C@H](C)O2)Oc2ccc(cc2Cl)[C@H]1O", "note": "[vancomycin]", "values": [
      {"measurement": "failure rate", "setting": "C. difficile", "result": "2–38%"}
    ]}
  ]
}
